Patent publication US8865664B2, “Hydrophobically enhanced aminoglycosides” (University of Manitoba, priority 2008, dated 2014)
Converted amounts (≈) assume the structure as drawn.

Columns and labels:
[1] = tested on: Gram-positive organisms (ATCC and CAN-ICU strains); experiment: MIC, Gram-positive organisms (compounds ending in A); format: cell-based; settings: in words; Table 3 organisms
Procedure: (§1) The minimum inhibitory concentrations (MIC) in μg/mL were determined using established methods (Clinical and Laboratory Standards Institute, 2006) and are shown in Table 3 (FIG. 17). Gentamicin, neomycin B and kanamycin A served as positive controls.

[2] = tested on: Gram-negative organisms (ATCC and CAN-ICU strains); experiment: MIC, Gram-negative organisms (compounds ending in A); format: cell-based; settings: in words; Table 3 organisms
Procedure: as §1

[3] = tested on: methicillin-resistant S. aureus (MRSA) ATCC 33592; experiment: MIC, antibiotic susceptibility testing, MRSA; format: cell-based, Staphylococcus aureus; settings: for fold enhancement against MRSA when compared to neomycin: vs neomycin
Procedure: (§2) Standard reference antibiotic susceptibility testing methods (NCCLS[CLS] (Clinical and Laboratory Standards Institute, 2006)) agar or dilutional methods was used to assess the activity of all prepared antimicrobials. Compounds were tested against Gram-positive strains including S. aureus, methicillin-resistant S. aureus (MRSA), S. epidermidis, methicillin-resistant S. epidermidis (MRSE) and S. pneumoniae as well as Gram-negative strains E. coli, gentamycin resistant E. coli and P. aeruginosa. Gentamycin and neomycin served as positive controls. MIC values defined as the lowest concentration of antimicrobial agent which inhibits the development of visible growth after 24 h at 37° C. was determined.
as §1

[4] = tested on: P. aeruginosa (ATCC 27853); experiment: MIC, P. aeruginosa (compounds 13-31); format: cell-based, Pseudomonas aeruginosa; settings: in words; among neomycin-lipid conjugates
Procedure: as §2

[5] = tested on: Microorganisms from ATCC and CAN-ICU; experiment: MIC, all investigated bacteria (compounds ending in A); format: cell-based; settings: in words; vs 4A
Procedure: as §1

[6] = tested on: gentamycin resistant E. coli (ATCC 6174); experiment: MIC, gentamycin resistant E. coli (compounds 13-31); format: cell-based; settings: in words
Procedure: as §2

[7] = tested on: E. coli (ATCC 25922); experiment: MIC, E. coli (compounds 13-31); format: cell-based; settings: in words
Procedure: as §2

[8] = tested on: methicillin-resistant S. epidermidis (MRSE) (ATCC 14990); experiment: MIC, antibiotic susceptibility testing, MRSE (compounds 13-31); format: cell-based, Staphylococcus epidermidis; settings: vs kanamycin A
Procedure: as §2

[9] = tested on: MRSA; settings: fatty acid against MRSA; cited from earlier work
[10] = tested on: MSSA (methicillin-susceptible S. aureus); settings: fatty acid against MSSA; cited from earlier work

Compound: 1,3,2′,6′,2′″,6′″-Hexaammonium-6,3′,4′,2″,5″,4′″-hexa-β-phenylcarbamoyl-5″-hexadecanoyl-5″-deoxy-neomycin-hexafluoroacetate [Compound 7A]
- Gram-positive antibacterial activity [1]: poor
- Gram-negative activity [2]: poor

Compound: 1,3,2′,6′,2′″,6″-Hexaammonium-5″-deoxy-5″-N-(hexadecanoyl)-neomycin hexakis(trifluoroacetate) [Compound 15]
- fold enhancement against MRSA when compared to neomycin ([3]; MRSA): 32 fold

Compound: 1,3,2′,6′,2′″,6″-Hexaammonium-5″-deoxy-5″-N-(nonadecanoyl)-neomycin hexakis(trifluoroacetate) [Compound 16]
- fold enhancement against MRSA when compared to neomycin ([3]; MRSA): 32 fold
- antimicrobial activity against P. aeruginosa [4]: optimal

Compound: 1,3,2′,6′-Tetraammonium-4,5,3′,4′-tetra-O-phenylcarbamoyl-neamine-tetrafluoroacetate [Compound 17A]
- Gram-positive antibacterial activity [1]: reduced
- Gram-negative activity [2]: higher

Compound: 1,3,6′,3″-Tetraammonium-5,2′,4′,2″,3″,4″-hexa-O-phenylcarbamoyl-6″ hexadecanoyl-6″-deoxy-kanamycin-tetrafluoroacetate [Compound 14A]
- Gram-positive antibacterial activity [1]: poor
- Gram-negative activity [2]: poor

Compound: 1,3,6′,3″-Tetraammonium-5,2″,4″,6″,2′″,3′″,4′″-hepta-β-phenylcarbamoyl-6″-deoxy-kanamycin-tetrafluoroacetate [Compound 11A]
- Gram-positive antibacterial activity [1]: reduced
- Gram-negative activity [2]: poor

Compound: 3,6′,3″,1′″-Tetraammonium-5,2′,4′,2″,3″,4″-hexa-O-phenylcarbamoyl-6″-deoxy-amikacin-tetrafluoroacetate [Compound 20A]
- Gram-positive antibacterial activity [1]: reduced
- Gram-negative activity [2]: poor

Compound: 4,3′,4′,2″,5″3′″,4″-Hexa-O-phenylcarbamoyl-1,3,2′,6′,2′″,6′″-hexa-N-(guanidinyl)-5″-deoxy-neomycin-hexafluoroacetate [Compound 9A]
- antibacterial activity when compared to 4A [5]: slightly reduced

Compound: CCCCCC(=O)NCC1OC(OC2C(O)C(N)CC(N)C2OC2OC(CN)C(O)C(O)C2N)C(O)C1OC1OC(CN)C(O)C(O)C1N.O=C(O)C(F)(F)F.O=C(O)C(F)(F)F.O=C(O)C(F)(F)F.O=C(O)C(F)(F)F.O=C(O)C(F)(F)F.O=C(O)C(F)(F)F (stereo not drawn) [Compound 13, 1,3,2′,6′,2′″,6″-Hexaammonium-5″-deoxy-5″-N-(hexanoyl)-neomycin hexakis(trifluoroacetate)]
- activity against gentamycin-resistant E. coli relative to the C16- or C20-lipid conjugates [6]: stronger activity
- activity against E. coli relative to the C16- or C20-lipid conjugates [7]: stronger activity

Compound: CCCCCCCCCCCCCCCC(=O)NCC1OC(OC2C(N)CC(N)C(OC3OC(CN)C(O)C(O)C3O)C2O)C(O)C(N)C1O.O=C(O)C(F)(F)F.O=C(O)C(F)(F)F.O=C(O)C(F)(F)F.O=C(O)C(F)(F)F (stereo not drawn) [Compound 30, 1,3,6′,3″-Tetraammonium-6″-deoxy-6″-N-(hexadecanoyl)-kanamycin-tetrakis-(trifluoroacetate)]
- fold enhancement in antimicrobial activity against MRSE when compared to unmodified kanamycin A [8]: 56 fold
- fold enhancement in antimicrobial activity against MRSA when compared to unmodified kanamycin A ([3]; MRSA, vs kanamycin A): 35 fold

Compound: CCCCCCCCCCCC(=O)O [lauric acid]
- MIC [9]: 400 µg/mL (≈ 2000 µM)
- MIC [10]: 400 µg/mL (≈ 2000 µM)

Compound: neomycin [reference compound]
- MIC ([3]; against MRSA, 24 h at 37° C.): ~8 µg/mL
